Experimental data: ChEMBL document CHEMBL3046064, “Expression of OPN in rat kidney with different doses of vitamin K3 injection” (2007)

What was measured:
[1] = system: Rattus norvegicus; assay: Downregulation of OPN expression in 1% ethylene glycol-treated Rattus norvegicus Sprague-Dawley (rat) kidney at 0.8 mg/day, po after 14 days by ELISA (reference value: 75 +/- 13.5 %); assay type: functional
[2] = system: Rattus norvegicus; assay: Downregulation of OPN expression in 1% ethylene glycol-treated Rattus norvegicus Sprague-Dawley (rat) kidney at 2 mg/day, po after 14 days by ELISA (reference value: 75 +/- 13.5 %); assay type: functional
[3] = system: Rattus norvegicus; assay: Downregulation of OPN expression in 1% ethylene glycol-treated Rattus norvegicus Sprague-Dawley (rat) kidney at 3 mg/day, po after 14 days by ELISA (reference value: 75 +/- 13.5 %); assay type: functional
[4] = system: Rattus norvegicus; assay: Downregulation of OPN expression in 1% ethylene glycol-treated Rattus norvegicus Sprague-Dawley (rat) kidney at 4 mg/day, po after 14 days by ELISA (reference value: 75 +/- 13.5 %); assay type: functional
[5] = species: Rattus norvegicus; assay: Renoprotective activity in Rattus norvegicus Sprague-Dawley (rat) kidney assessed as decrease in oxalate excretion in urine at 4 mg/day after 14 days in presence of water (reference value: 1.11 +/- 0.06 uM); assay type: functional
[6] = species: Rattus norvegicus; assay: Renoprotective activity in 1% ethylene glycol-treated Rattus norvegicus Sprague-Dawley (rat) kidney assessed as decrease in oxalate excretion in urine at 0.4 mg/day after 14 days (reference value: 4.07 +/- 0.05 uM); assay type: functional
[7] = species: Rattus norvegicus; assay: Renoprotective activity in 1% ethylene glycol-treated Rattus norvegicus Sprague-Dawley (rat) kidney assessed as decrease in oxalate excretion in urine at 0.8 mg/day after 14 days (reference value: 4.07 +/- 0.05 uM); assay type: functional
[8] = species: Rattus norvegicus; assay: Renoprotective activity in 1% ethylene glycol-treated Rattus norvegicus Sprague-Dawley (rat) kidney assessed as decrease in oxalate excretion in urine at 2 mg/day after 14 days (reference value: 4.07 +/- 0.05 uM); assay type: functional
[9] = species: Rattus norvegicus; assay: Renoprotective activity in 1% ethylene glycol-treated Rattus norvegicus Sprague-Dawley (rat) kidney assessed as decrease in oxalate excretion in urine at 3 mg/day after 14 days (reference value: 4.07 +/- 0.05 uM); assay type: functional
[10] = species: Rattus norvegicus; assay: Renoprotective activity in 1% ethylene glycol-treated Rattus norvegicus Sprague-Dawley (rat) kidney assessed as decrease in oxalate excretion in urine at 4 mg/day after 14 days (reference value: 4.07 +/- 0.05 uM); assay type: functional
[11] = system: Rattus norvegicus; assay: Downregulation of OPN expression in 1% ethylene glycol-treated po dosed Rattus norvegicus Sprague-Dawley (rat) kidney at 0.4 mg/day, po after 14 days by ELISA; assay type: functional, organism-based
[12] = system: Rattus norvegicus; assay: Downregulation of OPN expression in Rattus norvegicus Sprague-Dawley (rat) kidney at 0.4 mg/day, po after 14 days by ELISA in presence of water (reference value: 10 +/- 3 %); assay type: functional
[13] = system: Rattus norvegicus; assay: Downregulation of OPN expression in 1% ethylene glycol-treated Rattus norvegicus Sprague-Dawley (rat) kidney at 0.4 mg/day, po after 14 days by ELISA (reference value: 75 +/- 13.5 %); assay type: functional

CC1=CC(=O)c2ccccc2C1=O [MENADIONE]
Activity [1]: 55%
Activity [2]: 35%
Activity [3]: 30%
Activity [4]: 20%
Activity [5]: 1.02 µM
Activity [6]: 3.44 µM
Activity [7]: 3.04 µM
Activity [8]: 2.55 µM
Activity [9]: 2.01 µM
Activity [10]: 1.49 µM
Activity [11]: Dose-dependent effect
Activity [12]: 11%
Activity [13]: 70%
